Marks after values point to notes of the source that are not given here.
Test system: severe traumatic brain injury (sTBI)
Assay: sTBI in rats, HPLC of purine-pyrimidine / energy metabolites in brain (Example 3)
Assay type: in vivo, Male Wistar rats
Description: The experimental protocol used in this study was approved by the Ethical Committee of the Catholic University of Rome, according to international standards and guidelines for animal care. Male Wistar rats of 300-350 g body weight (b.w.) were fed with standard laboratory diet and water ad libitum in a controlled environment.
1) n=6 animals subjected to sTBI, with drug administration after 30 minutes and sacrifice at 2 days post-TBI (Acute phase 1)
2) n=6 animals subjected to severe-TBI, with drug administration after 30 minutes and sacrifice at 7 days post-TBI (Acute phase 2).
3) n=6 animals subjected to severe-TBI, with drug administration after 3 days and sacrifice at 7 days post-TBI (Chronic phase).
As the anesthetic mixture, animals received 35 mg/kg b.w. ketamine and 0.25 mg/kg b.w. midazolam by i.p. injection. sTBI was induced by dropping a 450 g weight from 2 m height on to the rat head that had been protected by a metal disk previously fixed on the skull, according to the “weight drop” impact acceleration model (Marmarou et al., A new model of diffuse brain injury in rats. Part I: Pathophysiology and biomechanics. J Neurosurg. 1994; 80: 291-300). […] At the end of each period of treatment, rats were anesthetized again and then immediately sacrificed.
The drug treatment was a subcutaneous injection of 0.5 ml of LMW-DS (15 mg/kg) and administered according to the aforementioned schematic protocol.
An in vivo craniectomy was performed in all animals during anesthesia, after carefully removing the rat's skull, the brain was exposed and removed with a surgical spatula and quickly dropped in liquid nitrogen. After the wet weight (w.w.) determination, tissue preparation was affected as previously disclosed (Tavazzi et al., Cerebral oxidative stress and depression of energy metabolism correlate with severity of diffuse brain injury in rats. Neurosurgery. 2005; 56: 582-589; Vagnozzi et al., Temporal window of metabolic brain vulnerability to concussions: mitochondrial-related impairment-part I. Neurosurgery. 2007; 61: 379-388; Tavazzi et al., Temporal window of metabolic brain vulnerability to concussions: oxidative and nitrosative stresses-part II. Neurosurgery. 2007; 61: 390-395; Amorini et al., Severity of experimental traumatic brain injury modulates changes in concentrations of cerebral free amino acids. J Cell Mol Med. 2017; 21: 530-542.). Briefly, whole brain homogenization was performed with 7 ml of ice-cold, nitrogen-saturated, precipitating solution composed by CH3CN+10 mM KH2PO4, pH 7.40, (3:1; v:v), and using an Ultra-Turrax set at 24,000 rpm/min (Janke & Kunkel, Staufen, Germany). After centrifugation at 20,690×g, for 10 min at 4° C., the clear supernatants were saved, pellets were supplemented with 3 ml of the precipitating solution and homogenized again as described above. A second centrifugation was performed (20,690×g, for 10 min at 4° C.), pellets were saved, supernatants combined with those previously obtained, extracted by vigorous agitation with a double volume of HPLC-grade CHCl3 and centrifuged as above. The upper aqueous phases containing water-soluble low-molecular weight compounds were collected, subjected to chloroform washings for two more times (this procedure allowed the removal of all the organic solvent and of any lipid soluble compound from the buffered tissue extracts), adjusted in volumes with 10 mM KH2PO4, pH 7.40, to have ultimately aqueous 10% tissue homogenates and saved at −80° C. until assayed. […]

[1] = Acute phase 1: 15 mg/kg s.c. 30 min post-sTBI, sacrifice 2 days
[2] = Acute phase 2: 15 mg/kg s.c. 30 min post-sTBI, sacrifice 7 days

low molecular weight dextran sulfate [LMW-DS]
brain MDA levels (15 mg/kg s.c.): significant reduction | brain NAA and its substrates (15 mg/kg s.c.): significant improvements | brain ascorbic acid and GSH levels (15 mg/kg s.c.): significant improvement | brain nitrate concentrations (15 mg/kg s.c., acute and chronic phases of sTBI): significantly decreased | ADO, cerebral concentration [1]: 71.67 ± 15.87 nmol/g (w.w.) | ADP, cerebral concentration [1]: 279.34 ± 29.59^b nmol/g (w.w.) | ADP-ribose, cerebral concentration [1]: 137.87 ± 43.18^a nmol/g (w.w.) | AMP, cerebral concentration [1]: 53.61 ± 17.91^a,c,j nmol/g (w.w.) | ATP, cerebral concentration [1]: 1464.25 ± 99.09^a,h nmol/g (w.w.) | CDP choline, cerebral concentration [1]: 10.93 ± 3.22^b,h nmol/g (w.w.) | CDP, cerebral concentration [1]: 25.53 ± 6.83^a,c nmol/g (w.w.) | CMP, cerebral concentration [1]: 30.12 ± 9.97^a,h nmol/g (w.w.) | CTP, cerebral concentration [1]: 18.98 ± 6.58^a,g nmol/g (w.w.) | CoA-SH, cerebral concentration [1]: 21.61 ± 3.42^a,h nmol/g (w.w.) | GDP glucose, cerebral concentration [1]: 38.71 ± 6.86 nmol/g (w.w.) | GDP, cerebral concentration [1]: 158.72 ± 24.57^a nmol/g (w.w.) | GMP, cerebral concentration [1]: 177.00 ± 32.39^a,g nmol/g (w.w.) | GSH, cerebral concentration [1]: 2649.50 ± 397.31^a,d nmol/g (w.w.) | GSSG, cerebral concentration [1]: 185.21 ± 48.10 nmol/g (w.w.) | GTP, cerebral concentration [1]: 255.29 ± 45.21^a,g nmol/g (w.w.) | IMP, cerebral concentration [1]: 67.71 ± 10.63^g,i nmol/g (w.w.) | MDA, cerebral concentration [1]: 12.47 ± 2.09^a,c,g nmol/g (w.w.) | NADH, cerebral concentration [1]: 15.49 ± 2.05^c,j nmol/g (w.w.) | NADPH, cerebral concentration [1]: 6.22 ± 1.73 nmol/g (w.w.) | NADP^+, cerebral concentration [1]: 17.95 ± 3.28^a nmol/g (w.w.) | NAD^+, cerebral concentration [1]: 404.63 ± 51.10^a,c,i nmol/g (w.w.) | NM, cerebral concentration [1]: 6147.91 ± 989.12^a nmol/g (w.w.) | NO2, cerebral concentration [1]: 216.03 ± 41.74^a nmol/g (w.w.) | NO3, cerebral concentration [1]: 210.64 ± 91.95^d nmol/g (w.w.) | UDP, cerebral concentration [1]: 61.83 ± 10.23^a,g nmol/g (w.w.) | UDP-Gal, cerebral concentration [1]: 119.45 ± 12.50 nmol/g (w.w.) | UDP-GalNac, cerebral concentration [1]: 19.17 ± 4.01^a nmol/g (w.w.) | UDP-Glc, cerebral concentration [1]: 32.14 ± 4.59^g nmol/g (w.w.) | UDP-GlcNac, cerebral concentration [1]: 95.85 ± 19.73^h,i nmol/g (w.w.) | UMP, cerebral concentration [1]: 107.80 ± 21.62 nmol/g (w.w.) | UTP, cerebral concentration [1]: 123.46 ± 15.42^d nmol/g (w.w.) | acetyl-CoA, cerebral concentration [1]: 21.56 ± 6.22^a,g,i nmol/g (w.w.) | adenine, cerebral concentration [1]: 44.82 ± 6.31^a,d,g nmol/g (w.w.) | ascorbic acid, cerebral concentration [1]: 3733.10 ± 277.88^a,d nmol/g (w.w.) | creatinine, cerebral concentration [1]: 24.55 ± 3.20^b,g,i nmol/g (w.w.) | cytidine, cerebral concentration [1]: 15.40 ± 3.04 nmol/g (w.w.) | cytosine, cerebral concentration [1]: 17.69 ± 2.50^b,d nmol/g (w.w.) | guanine, cerebral concentration [1]: 4.80 ± 1.24^b nmol/g (w.w.) | guanosine, cerebral concentration [1]: 20.71 ± 5.66 nmol/g (w.w.) | hypoxanthine, cerebral concentration [1]: 14.47 ± 2.87^a nmol/g (w.w.) | inosine, cerebral concentration [1]: 92.55 ± 31.20^c nmol/g (w.w.) | malonyl-CoA, cerebral concentration [1]: 12.33 ± 1.82^b nmol/g (w.w.) | orotic acid, cerebral concentration [1]: 8.80 ± 2.45^b,h,j nmol/g (w.w.) | thymidine, cerebral concentration [1]: 0.69 ± 0.11 nmol/g (w.w.) | uracil, cerebral concentration [1]: 14.56 ± 5.44 nmol/g (w.w.) | uric acid, cerebral concentration [1]: 23.62 ± 3.77^a,d,h nmol/g (w.w.) | uridine, cerebral concentration [1]: 76.35 ± 12.85^a,c nmol/g (w.w.) | xanthine, cerebral concentration [1]: 9.46 ± 2.34^d nmol/g (w.w.) | β-pseudouridine, cerebral concentration [1]: 6.65 ± 1.30^g,i nmol/g (w.w.) | ADO, cerebral concentration [2]: 82.11 ± 16.51^a nmol/g (w.w.) | ADP, cerebral concentration [2]: 264.07 ± 28.29^b,e,j nmol/g (w.w.) | ADP-ribose, cerebral concentration [2]: 141.96 ± 23.56^a,e,j nmol/g (w.w.) | AMP, cerebral concentration [2]: 57.70 ± 23.01^a,e,j nmol/g (w.w.) | ATP, cerebral concentration [2]: 1632.23 ± 90.07^a,e,j nmol/g (w.w.) | CDP choline, cerebral concentration [2]: 6.91 ± 1.86 nmol/g (w.w.) | CDP, cerebral concentration [2]: 24.29 ± 6.76^a nmol/g (w.w.) | CMP, cerebral concentration [2]: 15.68 ± 2.12^f,j nmol/g (w.w.) | CTP, cerebral concentration [2]: 32.63 ± 3.99^e,i nmol/g (w.w.) | CoA-SH, cerebral concentration [2]: 30.57 ± 6.02^f nmol/g (w.w.) | GDP glucose, cerebral concentration [2]: 49.25 ± 10.33^a nmol/g (w.w.) | GDP, cerebral concentration [2]: 126.70 ± 31.35^a,j nmol/g (w.w.) | GMP, cerebral concentration [2]: 91.47 ± 12.35^e,i nmol/g (w.w.) | GSH, cerebral concentration [2]: 2821.50 ± 242.82^a,e nmol/g (w.w.) | GSSG, cerebral concentration [2]: 219.54 ± 53.36 nmol/g (w.w.) | GTP, cerebral concentration [2]: 336.65 ± 35.18^a,e,j nmol/g (w.w.) | IMP, cerebral concentration [2]: 102.63 ± 22.09^a nmol/g (w.w.) | MDA, cerebral concentration [2]: 4.82 ± 1.73^a,e,i nmol/g (w.w.) | NADH, cerebral concentration [2]: 13.12 ± 4.19^e nmol/g (w.w.) | NADPH, cerebral concentration [2]: 7.05 ± 2.21 nmol/g (w.w.) | NADP^+, cerebral concentration [2]: 21.27 ± 4.19^b,e,j nmol/g (w.w.) | NAD^+, cerebral concentration [2]: 401.18 ± 34.53^a,e,i nmol/g (w.w.) | NM, cerebral concentration [2]: 7262.84 ± 749.73^a,e nmol/g (w.w.)
